According to patent publication US10730875B2, “Substituted imidazo[1,2-A]pyridin-2-ylamine compounds, and pharmaceutical compositions and methods of use thereof” (JN Therapeutics, priority 2015, dated 2020):

Columns and labels:
[1] = molecular target: human Janus kinase 1 (JAK1), recombinant catalytic domain (Homo sapiens (Human), UniProt P23458); assay: LanthaScreen TR-FRET enzymatic assay, JAK1; format: biochemical; settings: 1 mM ATP, GFP-STAT1 substrate, read-out: Inhibitory Activity IC50 JAK1
Method: (§1) The in vitro inhibition of recombinant human JAKs was determined as follow.
(§2) Compounds were tested in LANTHASCREEN™ time-resolved fluorescence energy transfer (TR-FRET) enzymatic assays from Invitrogen. The human Janus kinase 1 (JAK1) used in the assay is the recombinant JAK1 catalytic domain (amino acids 866-1154) expressed and purified from insect cells (Invitrogen, Cat. No. PV4774). The human Janus kinase 2 (JAK2) used in the assay is the recombinant JAK2 catalytic domain (amino acids 808-1132) expressed and purified from insect cells (Invitrogen, Cat. No. PV4210). The human Janus kinase 3 (JAK3) used in the assay is the recombinant JAK3 catalytic domain (amino acids 781-1124) expressed and purified from insect cells (Invitrogen, Cat. No. PV3855). The human tyrosine kinase 2 (TYK2) used in the assay is the recombinant TYK2 catalytic domain (amino acids 833-1187) expressed and purified from insect cells (Invitrogen, Cat. No. PV4790). The substrate is a recombinant STAT1 expressed as a fusion with GFP (Green Fluorescent Protein) to act as a physiological substrate (Invitrogen, Cat. No. PV5211).
(§3) Test compounds were prepared and diluted in DMSO in 3-fold serial dilutions for 10 doses to 100× of the final testing concentrations. The compounds were then further diluted to 4× by the kinase reaction buffer (Invitrogen, Cat. No. PV3189). The enzymatic reaction for compound testing was performed in a white 384-well polypropylene plate (Packard, Cat. No. 6005214) with a total reaction volume of 10 μL containing 440 ng/mL JAK1, 11 ng/mL JAK2, 400 ng/mL JAK3, or 200 ng/mL TYK2, 100 nM substrate, and 1 mM ATP. The assay started with loading 2.5 μL of JAK1, JAK2, JAK3, or TYK2 diluted in the kinase reaction buffer to wells, followed by addition of an equal volume of 4× compounds for 15-min incubation at room temperature for pre-treatment. The enzymatic reaction was initiated by addition of 5 μL of a mixture of the substrate and ATP prepared in the kinase reaction buffer. After one hour reaction, 10 μL mixture of EDTA (final 10 mM) and terbium-labeled anti-pSTAT1 (pTyr701) antibody (final 2 nM) (Invitrogen, Cat. No. PV4844) prepared in TR-FRET antibody dilution buffer (Invitrogen, Cat. No. PV3574) was added to stop the enzymatic reaction and produce TR-FRET signals. After 30 minutes of incubation at room temperature, the plate was read in Tecan Infinite F200 Pro with the following settings: Excitation 340 nm (30)/Emission1 495 nm (10)/Emission2 520 nm (25). The TR-FRET values were dimensionless numbers that were calculated as the ratio of the acceptor ([…]) signal to the donor (Terbium) signal. Percent of inhibition was calculated as (100%−percentage of compound-treated/DMSO vehicle-treated). The dose-response curves were generated and the IC50s were calculated by nonlinear sigmoid curve fitting using GraphPad Prism.
(§4) In Table 1, A represents a value no greater than 500 nM, B represents a value greater than 500 nM but no greater than 1 μM, C represents a value greater than 1 μM but no greater than 5 μM, and D represents a value greater than 5 μM. In Table 2, A′ represents a ratio of greater than 8, B′ represents a ratio of no greater than 8 but no less than 4, C′ represents a ratio of no greater than 4 but no less than 2, and D′ represents a ratio of no greater than 2. The selectivity is expressed as a ratio of the IC50 values of a compound against two kinases to be compared.

[2] = molecular target: human Janus kinase 2 (JAK2), recombinant catalytic domain (Homo sapiens (Human), UniProt O60674); assay: LanthaScreen TR-FRET enzymatic assay, JAK2; format: biochemical; settings: for IC50: TR-FRET, 1 mM ATP, GFP-STAT1 substrate, read-out: Inhibitory Activity IC50 JAK2; for Selectivity JAK2/JAK1: ratio of IC50 against JAK2 over IC50 against JAK1
Method: as §1, §2, §3, §4

JAK1 = JAK1 (Homo sapiens (Human), UniProt P23458); assay: Cellular JAK1 assay: IL-6-mediated STAT3 phosphorylation in TF-1 cells; format: cell-based; settings: IL-6 stimulation, STAT3 phosphorylation at Tyr705 (AlphaLISA), read-out: Inhibitory Activity Against JAK1 IC50
Method: The cellular potency of a compound on JAK1 or JAK2 inhibition is determined by measuring the cytokine-mediated phosphorylation of STAT proteins in TF-1 cells.
Human cytokines of IL-6 (R&D Systems, Cat. No. 206-IL-010/CF) and GM-CSF (R&D Systems, Cat. No. 215-GM-010/CF) are reconstituted at 10 μg/mL in D-PBS containing 0.1% BSA (Sigma, Cat. No. A8577) and human EPO (R&D Systems, Cat. No. 287-TC-500) at 500 U/mL in D-PBS containing 0.1% BSA. TF-1 cells (ATCC, CRL-2003) were grown in RPMI1640 (ATCC, Cat. No. 30-2001) supplemented with 2 ng/mL of recombinant human GM-CSF, 10% FBS (Gibco, Cat. No. 10437-028), and 100 U/mL penicillin-streptomycin (Gibco, Cat. No. 15140-122). The cells were maintained and propagated between 1×10^5 cells/mL to 7.5×10^5 cells/mL. Aliquots of the cells from early passages were preserved for liquid nitrogen storage. Frozen vials of the cells were thawed at 37° C. water bath. The cells were spun to remove freezing medium. The newly revived frozen cells were adapted in culture for 5-7 days before used for compound testing. The cells used in for compound testing were less than 20 subculture passages or 3 months in culture.
To test compounds, the TF-1 cells were harvested at a density of 3 to 7×10^5 cells/mL by centrifugation. After removing the culture medium, the resulting cell pellet was suspended and washed once by centrifugation with HBSS buffer (Gibco, Cat. No. 14025-092) containing 0.1% BSA. The cell pellet was resuspended in HBSS buffer at 7.5×10^6 cells/mL. Four micro-liters of the cells (3×10^4 cells in total) were added to each well of a white 384-well plate (Packard, Cat. No. 6005214).
The compounds were first diluted in dimethylsulfoxide (DMSO) (Sigma, Cat. No. D2650) to generate 9 3-fold diluted dosing concentrations in a 96-well polypropylene plate (Corning, Cat. No. 3365), followed by addition of HBSS buffer for another 125-fold dilution. To the cells, 2 μL of the diluted compounds were added and mixed by tapping the plate several times. The cells were incubated for 2 hrs of treatment. DMSO was used as a control and similarly diluted along and added to the cells.
To assay JAK1 inhibition, 2 μL of IL-6 diluted at 400 ng/mL (4×) in HBSS containing 0.1% BSA was added to the treated cells. The cells were then incubated for 30 min of cytokine treatment and lysed at the end by addition of 2 μL of 5×AlphaLISA SureFire Ultra lysis buffer from Perkin Elmer. The plate was agitated on a plate shaker for 10 min at room temperature. The cellular JAK1 activity was determined by measuring STAT3 phosphorylation at Tyr705 in lysates using the AlphaLISA SureFire Ultra kit (Perkin Elmer, Cat. No. ALSU-PST3-A500). A volume of 5 μL of acceptor mix and donor mix was added sequentially to lysates following the product protocol. The assay signals were recorded on EnVision plate reader (Perkin Elmer) with AlphaScreen optics setting.
The results are summarized in Table 3, where A represents a value no greater than 500 nM, B represents a value greater than 500 nM but no greater than 1 μM, C represents a value greater than 1 μM but no greater than 5 μM, and D represents a value greater than 5 μM.

[3] = molecular target: human tyrosine kinase 2 (TYK2), recombinant catalytic domain (Homo sapiens (Human), UniProt P29597); assay: LanthaScreen TR-FRET enzymatic assay, TYK2; format: biochemical; settings: TR-FRET, 1 mM ATP, GFP-STAT1 substrate; read-out: Inhibitory Activity IC50 TYK2
Method: as §1, §2, §3, §4

[4] = tested on: human tyrosine kinase 2 (TYK2), recombinant catalytic domain; assay: LanthaScreen TR-FRET enzymatic assay, TYK2; format: biochemical; settings: ratio of IC50 against TYK2 over IC50 against JAK1
Method: as §1, §2, §3, §4

[5] = tested on: human Janus kinase 3 (JAK3), recombinant catalytic domain; assay: LanthaScreen TR-FRET enzymatic assay, JAK3; format: biochemical; settings: ratio of IC50 against JAK3 over IC50 against JAK1
Method: as §1, §2, §3, §4

[6] = molecular target: human Janus kinase 3 (JAK3), recombinant catalytic domain (Homo sapiens (Human), UniProt P52333); assay: LanthaScreen TR-FRET enzymatic assay, JAK3; format: biochemical; settings: TR-FRET, 1 mM ATP, GFP-STAT1 substrate; read-out: Inhibitory Activity IC50 JAK3
Method: as §1, §2, §3, §4

Chain of human tyrosine kinase 2 (TYK2), recombinant catalytic domain (Homo sapiens (Human), UniProt P29597) (P29597 833-1187): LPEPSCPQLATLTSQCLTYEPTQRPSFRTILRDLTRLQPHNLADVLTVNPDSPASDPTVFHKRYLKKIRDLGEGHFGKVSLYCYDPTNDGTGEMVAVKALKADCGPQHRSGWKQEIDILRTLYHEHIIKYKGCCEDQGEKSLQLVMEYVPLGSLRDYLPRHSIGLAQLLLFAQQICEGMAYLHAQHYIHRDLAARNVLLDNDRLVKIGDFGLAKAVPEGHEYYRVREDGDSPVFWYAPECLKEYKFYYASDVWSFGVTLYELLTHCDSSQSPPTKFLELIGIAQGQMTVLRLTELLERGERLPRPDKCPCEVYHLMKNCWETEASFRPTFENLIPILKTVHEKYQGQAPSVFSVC
Chain of human Janus kinase 3 (JAK3), recombinant catalytic domain (Homo sapiens (Human), UniProt P52333) (P52333 781-1124): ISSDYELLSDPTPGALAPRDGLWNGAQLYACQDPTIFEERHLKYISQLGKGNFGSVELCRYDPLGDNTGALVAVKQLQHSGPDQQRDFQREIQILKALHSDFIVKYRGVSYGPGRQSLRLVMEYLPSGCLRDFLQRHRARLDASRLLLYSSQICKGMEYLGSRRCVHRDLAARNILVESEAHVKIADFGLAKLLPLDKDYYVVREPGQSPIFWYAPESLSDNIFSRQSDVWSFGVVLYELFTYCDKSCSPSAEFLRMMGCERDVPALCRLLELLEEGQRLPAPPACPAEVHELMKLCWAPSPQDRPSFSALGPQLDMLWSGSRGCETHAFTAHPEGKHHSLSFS
Chain of JAK1 (P23458 whole entry): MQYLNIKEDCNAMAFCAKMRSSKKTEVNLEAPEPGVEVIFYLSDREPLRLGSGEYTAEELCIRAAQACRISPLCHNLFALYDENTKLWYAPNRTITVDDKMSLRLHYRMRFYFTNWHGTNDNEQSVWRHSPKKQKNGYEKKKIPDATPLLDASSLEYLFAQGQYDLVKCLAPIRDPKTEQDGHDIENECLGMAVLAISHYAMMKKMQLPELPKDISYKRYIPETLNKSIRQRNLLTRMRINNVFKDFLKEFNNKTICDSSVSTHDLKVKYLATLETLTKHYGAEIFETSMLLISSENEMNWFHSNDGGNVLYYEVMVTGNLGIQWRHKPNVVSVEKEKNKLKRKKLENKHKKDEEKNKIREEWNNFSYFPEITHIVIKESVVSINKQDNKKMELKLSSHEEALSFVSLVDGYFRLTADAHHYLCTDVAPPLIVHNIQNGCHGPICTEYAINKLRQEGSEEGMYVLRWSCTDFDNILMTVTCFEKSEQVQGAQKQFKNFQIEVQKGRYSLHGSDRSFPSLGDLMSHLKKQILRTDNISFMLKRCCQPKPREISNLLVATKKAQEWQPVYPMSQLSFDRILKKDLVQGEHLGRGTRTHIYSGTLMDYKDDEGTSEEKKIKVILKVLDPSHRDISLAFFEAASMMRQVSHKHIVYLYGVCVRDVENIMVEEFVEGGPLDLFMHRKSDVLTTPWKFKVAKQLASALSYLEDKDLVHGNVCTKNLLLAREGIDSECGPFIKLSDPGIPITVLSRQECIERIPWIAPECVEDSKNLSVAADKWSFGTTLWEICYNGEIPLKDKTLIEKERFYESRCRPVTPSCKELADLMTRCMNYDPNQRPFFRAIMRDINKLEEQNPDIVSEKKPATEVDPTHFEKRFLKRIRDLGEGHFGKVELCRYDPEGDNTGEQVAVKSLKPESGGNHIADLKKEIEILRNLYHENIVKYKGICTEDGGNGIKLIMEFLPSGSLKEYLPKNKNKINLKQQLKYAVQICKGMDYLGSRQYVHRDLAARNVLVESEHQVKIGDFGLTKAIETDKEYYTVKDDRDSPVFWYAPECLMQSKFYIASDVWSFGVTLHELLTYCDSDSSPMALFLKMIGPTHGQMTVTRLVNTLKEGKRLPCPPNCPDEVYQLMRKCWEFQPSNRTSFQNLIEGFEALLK
Chain of human Janus kinase 1 (JAK1), recombinant catalytic domain (P23458 866-1154): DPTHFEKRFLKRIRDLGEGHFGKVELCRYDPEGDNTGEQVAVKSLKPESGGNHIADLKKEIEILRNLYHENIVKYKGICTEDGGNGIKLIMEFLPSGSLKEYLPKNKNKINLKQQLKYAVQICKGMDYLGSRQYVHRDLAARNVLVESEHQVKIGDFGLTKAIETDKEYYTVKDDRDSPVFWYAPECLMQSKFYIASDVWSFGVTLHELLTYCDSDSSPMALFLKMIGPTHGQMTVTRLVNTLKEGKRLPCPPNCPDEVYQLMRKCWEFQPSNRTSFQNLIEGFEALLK
Chain of human Janus kinase 2 (JAK2), recombinant catalytic domain (O60674 808-1132): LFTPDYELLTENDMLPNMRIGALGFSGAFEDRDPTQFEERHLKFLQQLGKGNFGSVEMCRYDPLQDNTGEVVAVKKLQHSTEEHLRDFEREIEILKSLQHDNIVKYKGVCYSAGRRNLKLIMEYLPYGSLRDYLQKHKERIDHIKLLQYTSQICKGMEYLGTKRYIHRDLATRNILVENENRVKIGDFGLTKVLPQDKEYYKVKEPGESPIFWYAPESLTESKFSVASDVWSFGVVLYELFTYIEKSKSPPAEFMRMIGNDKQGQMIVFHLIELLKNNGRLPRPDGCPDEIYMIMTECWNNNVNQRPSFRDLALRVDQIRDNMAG

Compound | IC50 [1] [µM] | IC50 [2] [µM] | Selectivity JAK2/JAK1 [2] | IC50 (JAK1) [µM] | IC50 [3] [µM] | Selectivity TYK2/JAK1 [4] | Selectivity JAK3/JAK1 [5] | IC50 [6] [µM]
N#CCc1ccc(-c2cccc3nc(NC(=O)C4CC4)cn23)cc1F [Compound 26] | ≤ 0.5 | > 5 | A′ (A′ represents a ratio of greater than 8) | ≤ 0.5 | > 5 | A′ (A′ represents a ratio of greater than 8) | A′ (A′ represents a ratio of greater than 8) | > 5
CC1(C)CN(C(=O)c2ccc(-c3cccc4nc(NC(=O)C5CC5)cn34)cc2F)C1 [Compound 24] | ≤ 0.5 | 1 to 5 | A′ (A′ represents a ratio of greater than 8) | ≤ 0.5 | 1 to 5 | A′ (A′ represents a ratio of greater than 8) | A′ (A′ represents a ratio of greater than 8) | > 5
O=C(Nc1cn2c(-c3ccc(NS(=O)(=O)C4CC4)cc3)cccc2n1)C1CC1 [Compound 30] | ≤ 0.5 | 0.5 to 1 | A′ (A′ represents a ratio of greater than 8) | ≤ 0.5 | ≤ 0.5 | B′ (B′ represents a ratio of no greater than 8 but no less than 4) | A′ (A′ represents a ratio of greater than 8) | > 5
O=C(Nc1cn2c(-c3ccc(CN4CCS(=O)(=O)CC4)cc3)cccc2n1)C1CCC1 [Compound 3] | 1 to 5 | > 5 | A′ (A′ represents a ratio of greater than 8) | – | > 5 | A′ (A′ represents a ratio of greater than 8) | A′ (A′ represents a ratio of greater than 8) | > 5
CC1(C)CN(C(=O)c2ccc(-c3cccc4nc(NC(=O)C5CC5)cn34)cc2)C1 [Compound 17] | ≤ 0.5 | 1 to 5 | A′ (A′ represents a ratio of greater than 8) | ≤ 0.5 | 1 to 5 | A′ (A′ represents a ratio of greater than 8) | A′ (A′ represents a ratio of greater than 8) | > 5
O=C(Nc1cn2c(-c3ccc(CN4CCOCC4)cc3)cccc2n1)C1CC1 [Compound 4] | 0.5 to 1 | > 5 | A′ (A′ represents a ratio of greater than 8) | – | > 5 | A′ (A′ represents a ratio of greater than 8) | A′ (A′ represents a ratio of greater than 8) | > 5
Cc1cc(-c2ccc(CN3CCS(=O)(=O)CC3)cc2)n2cc(NC(=O)C3CC3)nc2c1 [Compound 33] | > 5 | > 5 | A′ (A′ represents a ratio of greater than 8) | – | > 5 | A′ (A′ represents a ratio of greater than 8) | A′ (A′ represents a ratio of greater than 8) | > 5
Nc1cn2c(-c3ccc(CN4CCS(=O)(=O)CC4)cc3)cccc2n1 [Compound 19] | > 5 | > 5 | A′ (A′ represents a ratio of greater than 8) | – | > 5 | C′ (C′ represents a ratio of no greater than 4 but no less than 2) | D′ (D′ represents a ratio of no greater than 2) | > 5
CC1(C)CN(C(=O)c2ccc(-c3cccc4nc(NC(=O)C5CC5)cn34)c(F)c2)C1 [Compound 23] | 0.5 to 1 | > 5 | A′ (A′ represents a ratio of greater than 8) | – | > 5 | A′ (A′ represents a ratio of greater than 8) | A′ (A′ represents a ratio of greater than 8) | > 5
